The nature of experiment [1]: ABTS free-radical scavenging antioxidant assay. As to conditions: absorbance at 734 nm. As to the method: ABTS free-radical scavenging assay was used to test the antioxidant capacity of compounds Y1 to Y4. The method can be found in many articles. 7 mM ABTS and 2.45 mM ammonium persulfate were blended and stored in a dark place 16 hours, and then diluted by 80% ethanol to obtain the working solution which gave an absorbance of 0.69 at 734 nm. The working solution and compounds were mixed and allowed to react for ten minutes, and then measured the absorbance at 734 nm (AI) was measured using spectrophotometer. L-ascorbic acid and 80% ethanol was used as a positive and blank control, respectively. The A0 value was the blank absorbance. The antioxidant rate (%) = (A0-AI)/A0 * 100%

The target in experiment [2] is mushroom tyrosinase (Agaricus bisporus, UniProt C7FF04). In words: Diphenolase activity of mushroom tyrosinase (L-DOPA substrate). The format is biochemical. As to conditions: for Inhibition type: Lineweaver-Burk plots; for Inhibition type / KIS (inhibitor bonding with enzyme-substrate complex) / K IS (Table 1) / Inhibitory mechanisms: diphenolase; for KIS (inhibitor bonding with enzyme-substrate complex) / K IS (Table 1): L-DOPA; for KIS (inhibitor bonding with enzyme-substrate complex): secondary plot of intercepts; for K IS (Table 1): unit not given; for Inhibitory mechanisms: residual activity vs enzyme concentration. The protocol: L-Tyr and L-DOPA were used as the substrate to test the monophenolase and diphenolase activities of tyrosinase, respectively. The reaction system (3 ml) contained 1.1 mM L-Tyr or 0.5 mM L-DOPA, 25 mM PBS buffer (pH 6.8) and different concentrations of the inhbitors. For monophenolase and diphenolase activities, the final concentration of tyrosinase was 33.3μg/ml and 6μg/ml, respectively. The increased optical density with the oxidation of the substrates at 475 nm (the absorption coefficient was 3700 M^−1cm^−1) within a certain time were measured by DU800 spectrophotometer. […] The Michaelis-Menten constant Km of tyrosinase was determined by Lineweaver-Burk plot with different concentrations of L-DOPA as substrate and the inhibition constants KI and KIS were determined by the secondary plots of the apparent Km/Vm or 1/Vm versus the concentration of the inhibitors. The inhibition mechanism was reflected by the […] with various concentrations of mushroom tyrosinase.

Experiment [3] deals with T1, tyrosinase (Agaricus bisporus, UniProt C7FF04).
T1 construct: purchased Sigma Chemical Co. (St. Louis, MO, USA); host or cells: mushroom (natural source)
In words: Fluorescence quenching of tyrosinase. The experiment is classed as binding, mushroom. The following applies: 0.3 mg/ml tyrosinase, excitation 280 nm, inhibitor 10 to 70 μM. As to the method: Fluorescence quenching means the decrease of fluorescence intensity between the fluorescent molecules and solute molecules. This method was usually used to study the interaction between conformation of protein molecules and small molecules. Cary Eclipse fluorescence spectrophotometer was used to record the fluorescence intensities with an excitation wavelength of 280 nm and emission slit widths of 5 nm. […] In this study, the inhibitor was added in 0.3 mg/ml tyrosinase solution to detect the fluorescence intensity changes and the final concentrations of inhibitor range from 10 to 70 μM.
Fluorescence quenching can be divided into static quenching and dynamic quenching. Dynamic quenching is a process, which has energy or electron transfer, while the static quenching process will generate complexes without fluorescence. The quenching rate between the fluorescent molecules and quenching agents followed the Stem.Volmer curve equation [43]: F0/F=1+KSV[Q]
In the formula, F0 is the intensity of fluorescence without quenching agent, F is the fluorescence intensity after adding quencher, Ksv (L/mol) represents the relationship of dynamic equilibrium between biological macromolecules and fluorescence quencher molecules after diffusing and colliding, and [Q] is the concentration of quencher. From Fig 4D, the Ksv of Y1, Y2 and Y3 was determined to be 94437, 7160983 and 159186 L/mol, respectively.

SMILES strings stand for the structures.

Chain of mushroom tyrosinase (C7FF04 1-392): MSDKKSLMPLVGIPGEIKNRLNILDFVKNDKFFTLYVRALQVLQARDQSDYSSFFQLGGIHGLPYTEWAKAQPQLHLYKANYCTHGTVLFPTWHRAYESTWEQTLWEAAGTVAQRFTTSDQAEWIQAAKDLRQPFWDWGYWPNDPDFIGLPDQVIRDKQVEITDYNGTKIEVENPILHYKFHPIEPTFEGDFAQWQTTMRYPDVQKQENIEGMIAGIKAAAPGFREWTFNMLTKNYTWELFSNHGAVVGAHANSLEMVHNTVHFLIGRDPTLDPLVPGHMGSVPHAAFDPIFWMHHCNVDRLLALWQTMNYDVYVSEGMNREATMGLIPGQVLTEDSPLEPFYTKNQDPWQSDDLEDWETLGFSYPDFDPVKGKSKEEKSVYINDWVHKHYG
T1 sequence (C7FF04 1-392 limits assumed): as the sequence (C7FF04 1-392) above

On to `NNc1nnc(S)n1N` [AHMZ, 4-Amino-3-hydrazino-5-mercapto-1,2,4-triazole, reference compound], for which the “antioxidant capacity rank order” value in experiment [1] was “Y1 > Y2 > Y3 > Y4 > Vc > AHMZ”.

Regarding `Nn1c(S)nnc1N/N=C\c1cccc(F)c1` [Compound Y1, (Z)-4-amino-5-(2-(3-fluorobenzylidene)hydrazinyl)-4H-1,2,4-triazole-3-thiol], the “antioxidant capacity rank order” value in experiment [1] is “Y1 > Y2 > Y3 > Y4 > Vc > AHMZ”. In addition, in experiment [2], the Inhibition type result is listed as “Mixed”, the “KIS (inhibitor bonding with enzyme-substrate complex)” value was found to be 4 µM, the “K IS (Table 1)” value was 4 and the Inhibitory mechanisms entry is on record as “Reversible”. In addition, in experiment [3], the “Ksv (Stern-Volmer quenching constant)” value was 94437 L/mol.

For the compound `Nn1c(S)nnc1N/N=C\c1cccc(O)c1` [Compound Y2, (Z)-3-((2-(4-amino-5-mercapto-4H-1,2,4-triazol-3-yl)hydrazono)methyl)phenol], the “antioxidant capacity rank order” value in experiment [1] is on record as “Y1 > Y2 > Y3 > Y4 > Vc > AHMZ”. Moreover, in experiment [2], the Inhibition type entry is “Mixed”, the “KIS (inhibitor bonding with enzyme-substrate complex)” value was found to be 27.8 µM, the “K IS (Table 1)” value came to 28 and the Inhibitory mechanisms entry is reported as “Reversible”.

As for `Nn1c(S)nnc1N/N=C\c1ccccc1O` [Compound Y3, (Z)-2-((2-(4-amino-5-mercapto-4H-1,2,4-triazol-3-yl)hydrazono)methyl)phenol], the “antioxidant capacity rank order” value in experiment [1] was “Y1 > Y2 > Y3 > Y4 > Vc > AHMZ”. In experiment [2], the Inhibition type entry is reported as “Mixed”, the “KIS (inhibitor bonding with enzyme-substrate complex)” value is 21.04 µM, the “K IS (Table 1)” value is 21.04 and the Inhibitory mechanisms result is listed as “Reversible”. For the same compound, in experiment [3], the “Ksv (Stern-Volmer quenching constant)” value was found to be 159186 L/mol.

Consider `Oc1cccc(/C=N\Nc2nnc(S)n2/N=C/c2cccc(O)c2)c1` [Compound Y4, 3-((Z)-(2-(4-(((E)-3-hydroxybenzylidene)amino)-5-mercapto-4H-1,2,4-triazol-3-yl)hydrazono)methyl)phenol], for which, in experiment [1], the “antioxidant capacity rank order” value was “Y1 > Y2 > Y3 > Y4 > Vc > AHMZ”. Further, in experiment [2] (L-DOPA substrate), the “antityrosinase activity (diphenolase screen)” value was “almost do not have antityrosinase activity”.

For the compound `O=C1O[C@H]([C@@H](O)CO)C(O)=C1O` [Vc, L-ascorbic acid, reference compound], the “antioxidant capacity rank order” value in experiment [1] is reported as “Y1 > Y2 > Y3 > Y4 > Vc > AHMZ”.

The values are drawn from paper PMC4589318, “Synthesis of Triazole Schiff’s Base Derivatives and Their Inhibitory Kinetics on Tyrosinase Activity” (PLoS ONE, 2015).
